# In patent US20250180508A1, “QUANTITATIVE LIPIDOMIC ANALYSIS, METHODS AND USES THEREOF” (McMaster University, priority 2023, published 2025):
# Where “and” joins values, the source holds several entries; their conditions need not be identical. Identical values can stand only once. Like-named read-outs stand apart in the source and are kept apart here.
# Assays:
# [1] = Pooled sub-group untargeted serum lipid profiling by MSI-NACE-MS, high-dose FO supplementation vs placebo/baseline; conditions: pooled serum extracts; for Fold-change (average fold-change in ion response for serum lipid following FO supplementation to baseline): high-dose FO (EPA 3 g/day + DHA 2 g/day) vs baseline, underivatized, negative ion mode; for Change in serum lipid response following FO supplementation (in words): high-dose FO vs baseline/placebo, MSI-NACE-MS positive or negative ion mode
# Excerpt: (§1) In the first discovery cohort, fasting serum samples were collected from participants in a randomized, double-blinded, placebo-controlled intervention study that investigated the effects of FO supplementation on attenuating skeletal muscle disuse atrophy following leg immobilization (84). […] Briefly, this study comprised a cohort of healthy young women with a mean age of 22 years (range: 19-31 years) and BMI of 24 kg/m^2 (range: 18-26 kg/m^2) recruited locally from the Hamilton area. All participants received either a high-dose FO (3.0 g EPA and 2.0 g DHA daily; n=9) or a placebo control based on an isoenergetic and volume equivalent sunflower oil (SO) daily (n=9). Repeat fasting serum samples were collected from participants at baseline and after 28, 42 and 56 days of the intervention. All serum samples were then stored frozen at −80° C.
# (§2) Fasting serum and plasma samples were subject to a two-step chemical derivatization protocol using 9-fluorenylmethyoxycarbonyl chloride (FMOC) and 3-methyl-1-p-tolyltriazene (FMOC/MTT) as described in example 1. This reaction was introduced as a more convenient alternative to diazomethane to improve separation resolution and ionization efficiency by converting zwitter-ionic PL species that co-migrate close to the electroosmotic flow (EOF) into methylated phosphatidylcholines (PCs) and sphingomyelins (SMs) with a permanent positive charge. Briefly, in a glass sample vial, a 50 μL aliquot of serum/plasma sample was subject to a methyl-tert-butyl ether (MTBE) extraction, where 100 μL of methanol with 0.01% vol of BHT as antioxidant, and PC 16:0[D62] as internal standard were first added, and samples then mixed to induce protein precipitation. Next, 250 μL of MTBE was added and mixed prior to adding 100 μL of deionized water to induce phase separation. Samples were then centrifuged at 4000 g at 4° C. where then 200 μL of the organic layer was transferred into a new glass vial and dried down. Next, 100 μL of 0.85 mmol/L FMOC in chloroform containing PC 18:0[D70] as a second internal standard was added to dried serum/plasma extracts and mixed for 5 min at room temperature before drying down again. Next, 50 μL of MTBE containing 450 mmol/L of MTT was added to the glass vial with the lid sealed with Teflon tape. This vessel was then heated to 60° C. for 60 min.
# [2] = in vivo
# Excerpt: as §1, §2
# [3] = Targeted plasma PC analysis by MSI-NACE-MS in placebo-controlled EPA or DHA (~3 g/day) trial over 90 days; assay type: in vivo, human; conditions: change in plasma PC 36:5 + PC 38:6 from baseline, mean ± standard deviation
# Excerpt: This study was approved by the Research Ethics Board at the University of Guelph. Participant characteristics (sex, age, BMI etc.) and blood draws for O3I assessment were obtained for all participants (n=83) on study day visits. Purified EPA (KD-PUR EPA700TG) and DHA (KD-PUR DHA700TG) oils, as well as OO, were obtained from KD Pharma (Bexbach, Germany) with EPA and DHA in their triglyceride forms. […] All capsules contained 0.20% vol. tocopherol to prevent oxidation of polyunsaturated lipids. Exclusion criteria included use of FO supplements within the previous 3 months, >2 servings of fish/seafood or other omega-3 FA-rich products per week, prescribed medication use (except oral contraceptives), current smoking and history of cardiovascular disease. Participants were assigned via block randomization with stratification by sex to one of three treatment arms, namely OO supplement (n=27), EPA supplement (n=28) and DHA supplement (n=28). Participants were instructed to maintain regular exercise and dietary habits throughout the study. After overnight fasts, participants were subject to blood sampling at the Human Nutraceutical Research Unit at the University of Guelph before (baseline) and after (endpoint) of the 90-day intervention period. Blood was collected into EDTA-treated vacutainers was used to isolate plasma and erythrocytes. Samples were separated by centrifugation at 700×g at 4° C. for 15 min. […] In this case, the O3I was calculated by taking the sum of EPA and DHA relative to the sum of 15 saturated, monosaturated and polyunsaturated FAs in fasting plasma samples.
# (positive ion mode) or FA 14:0[D27]
# [4] = Omega-3 index (O3I) from erythrocyte PL FAMEs by GC-FID, EPA or DHA trial; assay type: in vivo, human; conditions: for O3I (Post): 90-day period; for Average O3I status after supplementation: high-dose intake, after 90 days, both sexes
# Excerpt: This study was approved by the Research Ethics Board at the University of Guelph. Participant characteristics (sex, age, BMI etc.) and blood draws for O3I assessment were obtained for all participants (n=83) on study day visits. Purified EPA (KD-PUR EPA700TG) and DHA (KD-PUR DHA700TG) oils, as well as OO, were obtained from KD Pharma (Bexbach, Germany) with EPA and DHA in their triglyceride forms. The FA content of these supplements was previously reported to be 75.7%±0.01% for oleic acid (18:1) in the OO supplement, 74.7%±0.09% EPA and 0.55%±0.01% DHA in the EPA supplement, and 72.3%±1.3% DHA and 1.05+0.11% EPA in the DHA supplement (91). All capsules contained 0.20% vol. tocopherol to prevent oxidation of polyunsaturated lipids. Exclusion criteria included use of FO supplements within the previous 3 months, >2 servings of fish/seafood or other omega-3 FA-rich products per week, prescribed medication use (except oral contraceptives), current smoking and history of cardiovascular disease. Participants were assigned via block randomization with stratification by sex to one of three treatment arms, namely OO supplement (n=27), EPA supplement (n=28) and DHA supplement (n=28). Participants were instructed to maintain regular exercise and dietary habits throughout the study. After overnight fasts, participants were subject to blood sampling at the Human Nutraceutical Research Unit at the University of Guelph before (baseline) and after (endpoint) of the 90-day intervention period. Blood was collected into EDTA-treated vacutainers was used to isolate plasma and erythrocytes. Samples were separated by centrifugation at 700×g at 4° C. for 15 min. A similar protocol was performed for FAME analysis from erythrocyte PL extracts following fractionation and saponification using GC-FID with normalization to heptadecanoic acid as internal standard (92). In this case, the O3I was calculated by taking the sum of EPA and DHA relative to the sum of 15 saturated, monosaturated and polyunsaturated FAs in fasting plasma samples.
# [5] = change from baseline, 3.0 g/day, in %
# [6] = change in erythrocyte PL membrane derived O3I from baseline, females (F), mean ± standard deviation
# [7] = change in erythrocyte PL membrane derived O3I from baseline, males (M), mean ± standard deviation
# [8] = difference in O3I status from baseline, similar dose of EPA or DHA
compound,measurement,setting,value
CCCCCCCCCCCCCCC(=O)O [FA 15:0],Fold-change (average fold-change in ion response for serum lipid following FO supplementation to baseline),[1],0.85
CCCCCCCCCCCCCCCCC(=O)O [FA 17:0],Fold-change (average fold-change in ion response for serum lipid following FO supplementation to baseline),[1],0.85
PE 38:5,Fold-change (average fold-change in ion response for serum lipid following FO supplementation to baseline),[1],0.49
same,Change in serum lipid response following FO supplementation (in words),[1],did not exhibit increases
"CC/C=C\C/C=C\C/C=C\C/C=C\C/C=C\C/C=C\CCC(=O)O [DHA, docosahexaenoic acid]",Change in serum lipid response following FO supplementation (in words),[2],more modest increase
same,Δ(PC 36:5 + PC 38:6),[3]; females (F),26.11 ± 16.15
same,Δ(PC 36:5 + PC 38:6),[3]; males (M),25.80 ± 20.88
same,Greater increase in O3I from baseline (relative efficacy) as compared to EPA,[4]; DHA vs EPA at the same dose level,63% and 64%
same,O3I (Post),"[4]; Female, 3.0 g/day",8.04 ± 1.34
same,O3I (Post),"[4]; Male, 3.0 g/day",8.73 ± 0.97
same,ΔO3I,[4]; [5],4.90 ± 1.33
same,ΔO3I,[4]; [6],4.31 ± 1.26
same,ΔO3I,[4]; [7],5.57 ± 1.10
same,ΔO3I,[4]; [8],4.90±1.33%
same,Average O3I status after supplementation,[4],6.49±1.17%
"CC/C=C\C/C=C\C/C=C\C/C=C\C/C=C\CCCC(=O)O [EPA, eicosapentaenoic acid]",Δ(PC 36:5 + PC 38:6),[3]; females (F),33.71 ± 16.15
same,Δ(PC 36:5 + PC 38:6),[3]; males (M),19.30 ± 14.26
same,Fold-change (average fold-change in ion response for serum lipid following FO supplementation to baseline),[1],4.16
same,Change in serum lipid response following FO supplementation (in words),[1],more modest increase
same,O3I (Post),"[4]; Female, 3.0 g/day",6.75 ± 1.20
same,O3I (Post),"[4]; Male, 3.0 g/day",6.23 ± 1.10
same,ΔO3I,[4]; [5],2.99 ± 1.19
same,ΔO3I,[4]; [6],3.14 ± 1.25
same,ΔO3I,[4]; [7],2.83 ± 1.14
same,ΔO3I,[4]; [8],2.99 ± 1.19%
same,Average O3I status after supplementation,[4],8.30±1.21%
"CCCCCCCCCCCCCCCCCC(=O)O [FA 18:0, stearic acid]",Fold-change (average fold-change in ion response for serum lipid following FO supplementation to baseline),[1],0.82
CCCCCCCCCCCC(=O)O [FA 12:0],Fold-change (average fold-change in ion response for serum lipid following FO supplementation to baseline),[1],0.86
CCCCCCCCCCCCCC(=O)O [FA 14:0],Fold-change (average fold-change in ion response for serum lipid following FO supplementation to baseline),[1],0.60
"CCCCCCCC/C=C\CCCCCCCC(=O)O [FA 18:1, oleic acid]",Fold-change (average fold-change in ion response for serum lipid following FO supplementation to baseline),[1],0.83
docasapentaenoic acid [FA 22:5],Fold-change (average fold-change in ion response for serum lipid following FO supplementation to baseline),[1],0.57
same,Change in serum lipid response following FO supplementation (in words),[1],did not respond to supplementation
